Results as given in PubChem BioAssay AID1259411 (Chemical Carcinogenesis Research Information System (CCRIS), 2018).
Active and inactive are the calls of the source. The rule behind the calls is not given here.

System: rodent carcinogenicity bioassays, tumor incidence
Assay: CCRIS carcinogenicity studies
Method in brief: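 NCI-built, expert-reviewed records of carcinogenicity and related test outcomes (mutagenicity, tumor promotion/inhibition) compiled from published and report sources, historical span 1985-2011, not updated.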

CCOC(N)=O
carcinogen call (Species: MOUSE, Strain/Sex: ICR/FEMALE, Route: INHALATION, Dose: 0, 0.25 UG/ML AIR FOR 5 D (TOTAL DOSE 1.25 UG/ML/D) (STUDY DURATION: 5 MO), Tumor Site: Type of Lesion: LUNG: TUMOR, HEMATOPOIETIC SYSTEM: LEUKEMIA): active; positive
carcinogen call (Species: MOUSE, Strain/Sex: ICR/FEMALE, Route: INHALATION, Dose: 0, 0.25 UG/ML AIR FOR 10 D (TOTAL DOSE 2.5 UG/ML/D) (STUDY DURATION: 5 MO), Tumor Site: Type of Lesion: LUNG: TUMOR): active; positive
carcinogen call (Species: MOUSE, Strain/Sex: ICR/FEMALE, Route: INHALATION, Dose: 0, 1.29 UG/ML AIR FOR 0.25 D (TOTAL DOSE 0.32 UG/ML/D) (STUDY DURATION: 5 MO), Tumor Site: Type of Lesion: LUNG: TUMOR, HEMATOPOIETIC SYSTEM: LEUKEMIA): active; positive
carcinogen call (Species: MOUSE, Strain/Sex: ICR/FEMALE, Route: INHALATION, Dose: 0, 1.29 UG/ML AIR FOR 1 D (TOTAL DOSE 1.29 UG/ML/D) (STUDY DURATION; 5 MO), Dose: 0, 1.29 UG/ML AIR FOR 1 D (TOTAL DOSE 1.29 UG/ML/D) (STUDY DURATION; 5 MO), Tumor Site: Type of Lesion: LUNG: TUMOR, HEMATOPOIETIC SYSTEM: LEUKEMIA): active; positive
carcinogen call (Species: MOUSE, Strain/Sex: ICR/FEMALE, Route: INHALATION, Dose: 0, 1.29 UG/ML AIR FOR 2 D (TOTAL DOSE 2.58 UG/ML/D) (STUDY DURATION: 5 MO), Tumor Site: Type of Lesion: LUNG: TUMOR, HEMATOPOIETIC SYSTEM: LEUKEMIA): active; positive
carcinogen call (Species: MOUSE, Strain/Sex: ICR/FEMALE, Route: INHALATION, Dose: 0, 1.29 UG/ML AIR FOR 4 D (TOTAL DOSE 5.16 UG/ML/D) (STUDY DURATION: 5 MO), Tumor Site: Type of Lesion: LUNG: TUMOR, HEMATOPOIETIC SYSTEM: LEUKEMIA): active; positive
carcinogen call (Species: MOUSE, Strain/Sex: ICR/FEMALE, Route: INHALATION, Dose: 0, 1.29 UG/ML AIR FOR 5 D (TOTAL DOSE 6.45 UG/ML/D) (STUDY DURATION: 5 MO), Tumor Site: Type of Lesion: LUNG: TUMOR, HEMATOPOIETIC SYSTEM: LEUKEMIA): active; positive
carcinogen call (Species: MOUSE, Strain/Sex: ICR/MALE, Route: INHALATION, Dose: 0, 0.25 UG/ML AIR FOR 10 D (TOTAL DOSE 2.5 UG/ML/D) (STUDY DURATION: 12 MO), Tumor Site: Type of Lesion: LUNG: ADENOCARCINOMA, HEMATOPOIETIC SYSTEM: LEUKEMIA, LIVER: HEPATOMA, Tumor Site: Type of Lesion: LUNG: ADENOCARCINOMA, HEMATOPOIETIC SYSTEM: LEUKEMIA, LIVER: HEPATOMA): active; positive
carcinogen call (Species: MOUSE, Strain/Sex: ICR/MALE, Route: INHALATION, Dose: 0, 1.29 UG/ML AIR FOR 4 D (TOTAL DOSE 5.16 UG/ML/D) (STUDY DURATION: 12 MO), Tumor Site: Type of Lesion: LUNG: ADENOCARCINOMA, HEMATOPOIETIC SYSTEM: LEUKEMIA, LIVER: HEPATOMA, Tumor Site: Type of Lesion: LUNG: ADENOCARCINOMA, HEMATOPOIETIC SYSTEM: LEUKEMIA, LIVER: HEPATOMA): active; positive
carcinogen call (Species: MOUSE, Strain/Sex: STRAIN-A/MALE, Route: INTRAPERITONEAL, Dose: 0, 1.12, 4.6 MMOL/KG IN ISOTONIC SALINE ONCE AT 6 WK OF AGE (STUDY DURATION: 16 WK), Dose: 0, 1.12, 4.6 MMOL/KG IN ISOTONIC SALINE ONCE AT 6 WK OF AGE (STUDY DURATION: 16 WK), Tumor Site: Type of Lesion: LUNG: ADENOMA): active; positive
carcinogen call (Species: MOUSE, Strain/Sex: SWISS WEBSTER/FEMALE, Route: INTRAVENOUS, Dose: 0, 3.3 MMOL ONCE ADMINISTERED TO VIRGIN FEMALES AT 12 WK OF AGE (STUDY DURATION: 6 MO), Tumor Site: Type of Lesion: LUNG: ADENOMA): active; positive
carcinogen call (Species: MOUSE, Strain/Sex: SWISS WEBSTER/FEMALE, Route: INTRAVENOUS, Dose: 0, 3.3 MMOL/KG ONCE ADMINISTERED TO MOTHERS ON GESTATIONAL DAY 14 (STUDY DURATION: 6 MO), Tumor Site: Type of Lesion: LUNG: ADENOMA): active; positive
carcinogen call (Species: MOUSE, Strain/Sex: SWISS WEBSTER/FEMALE, Route: TRANSPLACENTAL, Dose: 0, 3.3 MMOL/KG ONCE BY INTRAVENOUS ADMINISTRATION TO MOTHERS ON GESTATIONAL DAY 14 (STUDY DURATION: 6 MO), Tumor Site: Type of Lesion: LUNG: ADENOMA): active; positive
carcinogen call (Species: MOUSE, Strain/Sex: SWISS WEBSTER/MALE, Route: TRANSPLACENTAL, Dose: 0, 3.3 MMOL/KG ONCE BY INTRAVENOUS ADMINISTRATION TO MOTHERS ON GESTATIONAL DAY 14 (STUDY DURATION: 6 Mo), Tumor Site: Type of Lesion: LUNG: ADENOMA): active; positive
carcinogen call (Species: MOUSE, Strain/Sex: SWISS/MALE,FEMALE, Route: ORAL, Dose: 0, 0.4% IN DRINKING WATER, 2 10-D TREATMENTS, Dose: 0, 0.4% IN DRINKING WATER, 2 10-D TREATMENTS, Tumor Site: Type of Lesion: LUNG: ADENOMA, LYMPHOMA, LIVER: HEMANGIOMA, INTEGUMENTARY SYSTEM (SKIN): PAPILLOMA, SEBACEOUS CARCINOMA, Tumor Site: Type of Lesion: LUNG: ADENOMA, LYMPHOMA, LIVER: HEMANGIOMA, INTEGUMENTARY SYSTEM (SKIN): PAPILLOMA, SEBACEOUS CARCINOMA): active; positive
carcinogen call (Species: Mouse, Strain/Sex: 129 x MF1 Gstp-null (12-16 males and females), Route: Intraperitoneal, Dose: 10 mg/kg, once, study duration 5 mo, Tumor Site: Type of Lesion: Lung: adenoma (incidence 92% vs 27% in controls, multiplicity 3.8 vs 0.3 in controls)): inactive; negative
carcinogen call (Species: Mouse, Strain/Sex: 129 x MF1 wild type (14-16 males and females), Route: Intraperitoneal, Dose: 10 mg/kg, once, study duration 5 mo, Tumor Site: Type of Lesion: Lung: adenoma (incidence 29% vs 25% in controls, multiplicity 0.4 vs 0.3 in controls)): inactive; negative
carcinogen call (Species: RAT, Route: INTRAPERITONEAL, ORAL, Tumor Site: Type of Lesion: LIVER): active; positive
carcinogen call (Species: RAT, Route: INTRAPERITONEAL, Tumor Site: Type of Lesion: LIVER, NERVOUS SYSTEM): active; positive
carcinogen call (Species: RAT, Route: SUBCUTANEOUS, Tumor Site: Type of Lesion: EYE (IRIS)): active; positive
